IC50 data for five compounds are collected here from US5064856A, “Novel HMG-CoA synthase inhibitors” (Merck & Co., Inc., priority 1989, dated 1991).

pIC50: −log10 of the molar value. Some results are limits rather than exact numbers.

The target in this assay is T1, HMG-CoA synthase (Rattus norvegicus, UniProt P17425).
T1 construct: The livers from male Charles River CD rats (225-350 g) were homogenized in 0.25M sucrose; from tissue; host or cells: liver of male Charles River CD rats
T1 sequence (P17425 1-520): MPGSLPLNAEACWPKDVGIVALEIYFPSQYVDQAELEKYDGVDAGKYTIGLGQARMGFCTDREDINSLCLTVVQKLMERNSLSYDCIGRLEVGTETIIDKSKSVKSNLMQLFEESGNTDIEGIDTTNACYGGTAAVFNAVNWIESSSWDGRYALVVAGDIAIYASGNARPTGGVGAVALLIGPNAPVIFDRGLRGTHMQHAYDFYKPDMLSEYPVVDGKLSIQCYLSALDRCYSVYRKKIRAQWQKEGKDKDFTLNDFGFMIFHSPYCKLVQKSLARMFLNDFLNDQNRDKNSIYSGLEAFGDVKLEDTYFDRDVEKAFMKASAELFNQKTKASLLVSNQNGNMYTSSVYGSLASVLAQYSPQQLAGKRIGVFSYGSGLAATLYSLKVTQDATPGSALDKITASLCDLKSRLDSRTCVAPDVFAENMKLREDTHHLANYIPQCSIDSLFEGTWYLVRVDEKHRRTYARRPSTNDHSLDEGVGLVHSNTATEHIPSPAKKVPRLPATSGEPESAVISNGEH
Put plainly: HMG-CoA synthase inhibition assay. It counts as biochemical. To be noted: enzyme from rat liver; 5 min preincubation, 30°, pH 8.0; [14C]-acetyl-CoA. The protocol:
The intrinsic HMG--CoA synthase inhibition activity of the compounds of this invention is measured by the standard in vitro protocol described below:
The livers from male Charles River CD rats (225-350 g) were homogenized in 0.25M sucrose which was adjusted with phenylmethylsulfonylfluoride (PMSF) and N-p-tosyl-1-lysine chloromethyl ketone (TLCK) so that the final concentration of each was 50 and 25 μg/ml, respectively. The homogenate was first centrifuged at 700×g for 10 minutes, the supernatant decanted and recentrifuged at 7,700×g for 20 minutes. This supernatant was filtered through a fine nylon screen to remove most of the fat layer and recentrifuged at 100,000×g for 1 hour. This supernatant was removed and 1M potassium phosphate, dithiothreitol (DTT) and ethylene glycolbis(β-aminoethyl ether)-N,N,N',N'-tetraacetic acid (EGTA) added to give a final concentration of 0.1M (pH 7.2), 0.5 mM and 0.1 mM, respectively. Solid ammonium sulfate was added to 50% saturation to the protein solution, it was centrifuged at 15,000×g and the supernatant discarded. This precipitated protein could be stored at -70° C. for at least one month with very little loss of activity. The ammonium sulfate precipitate was dissolved in an minimal amount of 0.06M potassium phosphate buffer (pH 7.2) containing 0.5 mM dithiothreitol and 0.1 mM EGTA (referred to as 0.06M phosphate buffer) and dialyzed overnight against 2 liters of the same buffer to remove the ammonium sulfate and to inactivate HMG--CoA lyase [Clinkenbeard, et al., J. Biol. Chem. 250, 3108-3116 (1975)].
The dialyzed extract was added to a column of DEAE-52 (Whatman) which had been equilibrated with 0.06M phosphate buffer (10 mg of protein to 1 ml bed volume of the resin). The DEAE-cellulose was eluted with 0.06M phosphate buffer until the optical density at 280 nm was essentially zero. This fraction contained the β-ketoacetyl-CoA thiolase activity. The HMG--CoA synthase was eluted from the column with 0.1M KCl in 0.06M phosphate buffer (pH 7.2) containing 0.5 mM DTT and 0.1 mM EGTA, and was virtually free of all thiolase activity. The protein was precipitated by the addition of ammonium sulfate to give 50% saturation. This solution was stirred for 10 minutes at 4° C. and the precipitate collected by centrifugation at 15,000 rpm for 10 minutes. The supernatant was discarded and the precipitate dissolved in a minimum of 0.06M phosphate buffer, pH 7.2 (about 10 ml) and the enzyme stored at -80° C.
HMG-- CoA Synthase Inhibition Assay
Enzyme protein (ca. 12.2 μg) was added to a solution containing 117 mM Tris-HCl (pH 8.0), 11.7 mM MgCl2, 1.17 mM Ethylenediaminetetraacetic acid (EDTA), 0.58 mM dithiothreitol, and the indicated concentrations of the test compound (added as a 2 μg/ml solution in dimethylsulfoxide). The incubation took place in a volume of 0.085 ml at 30° in a shaking water bath. After 5 minutes, 15 μl of a solution containing acetoacetyl-CoA and 0.1 μCi of 1-[^14 C]-acetyl-CoA was added to give a final concentrations of 0.1 and 0.4 mM, respectively. […] Radioactivity was determined in a Packard Tri-Carb liquid scintillation counter. Percent inhibition is calculated by the formula: [formula] IC50 values were determined by plotting the log of the concentration of the test compound verses the percentage inhibition and fitting a straight line to the resulting data by using the least squares method.
Regarding `CC=CCCCCC=CC(=O)NC1CC2(OC1=O)C(O)C1OC1C1OC12` (centres unmarked) [Compound A-1], the pIC50 was below 5.00.

Compound `CC=CCCCCC=CC(=O)NC(CC1(O)C(=O)C2OC2C2OC21)C(=O)OC` (stereo not drawn) [Compound B, 3,8-Dioxatricyclo(5.1.0.0^2,^4)octane-5-propanoic acid, 5-hydroxy-6-oxo-α-((1-oxo-2,8-decadienyl)amino)-, methyl ester] had a negative-log IC50 (pIC50) of 6.74.

`CC=CCCCCC=CC(=O)NC1CC2(OC1=O)C(=O)C1OC1C(O)C2O` (centres unmarked) [Compound A-2, N-(4,5-dihydro-4',5'-dihydroxy-2',5-dioxospiro[furan-2(3H),3'-[7]oxabicyclo[4.1.0]-hept]-4-yl)-2,8-decadienamide] showed a pIC50 of 5.60.

Take `CC=CCCCCC=CC(=O)NC1CC2(OC1=O)C(=O)C1OC1C1OC12` (centres unmarked) [Compound C]: the pIC50 is 6.44.

Compound `CC=CCCCCC=CC(=O)NC1CC2(OC1=O)C(O)C1OC1C1OC12` (centres unmarked) [Compound A] gave a negative logarithm of the IC50 (pIC50) of 5.16.
